What was measured:
Type in all cases: in vivo
velvet leaf [1] = assay: Test Example 3: foliar application pot test, percent growth inhibition by fresh weight of aerial part and Colby's value; details: Abutilon theophrasti, velvet leaf 1-leaf stage, 20th day from foliar application, fresh weight of aerial part, read-out: Percent Growth Inhibition (%) Found
Description: (§1) 1/10000-are pot was filled with upland farming soil and sown with velvet leaf. When the plant reached the 1-leaf stage, a predetermined amount of the herbicide of the present invention diluted with 5 ℓ of water per are and admixed with 0.1 vol%, based on the aqueous solution, of an agricultural spreader ("Kusa Rino") was foliarly applied to the plant with a small spray gun. On the 20th day from the application, the aerial part of the plant was weighed to obtain a percent growth inhibition according to Equation (1) (found value) and a Colby's value (calculated value) according to Equation (2) (see Weed, Vol. 15, pp. 20-22 (1967)). Percent Growth Inhibition (%) = (1 -(Fresh Weight of Aerial Part of Plant in Treated Plot)/(Fresh Weight of Aerial Part of Plant in Untreated Plot)) x 100 [formula] Colby's Value (E) = α + β -(α x β)/(100) [formula]
(§2) Wherein α represents a percent growth inhibition when treated with an amount a (g/a) of herbicide A; β represents a percent growth inhibition when treated with amount b (g/a) of herbicide B; and E represents an expected percent growth inhibition when treated with a of herbicide A and b of herbicide B.

velvet leaf [2] = assay: Test Example 4: foliar application pot test, percent growth inhibition by fresh weight of aerial part and Colby's value; details: Abutilon theophrasti, foliar, read-out: Percent Growth Inhibition (%) Found
Description: as §1, §2
(§3) 1/10000-are pot was filled with upland farming soil and sown with velvet leaf. When the plant reached the 1-leaf stage, a predetermined amount of the herbicide of the present invention diluted with 5 ℓ of water per are and admixed with 0.1 vol%, based on the aqueous solution, of an agricultural spreader ("Kusa Rino") was foliarly applied to the plant with a small spray gun. On the 20th day from the application, the aerial part of the plant was weighed to obtain a percent growth inhibition and a Colby's value in the same manner as in Test Example 3.

[3] = tested on: large crabgrass (Digitaria adscendens); assay: Test Example 5: foliar application pot test, percent growth inhibition by fresh weight of aerial part and Colby's value; details: foliar, read-out: Percent Growth Inhibition (%) Found
Description: as §1, §2
as §3, with “large crabgrass (Digitaria adscendens).” for “velvet leaf.”, “2-leaf” for “1-leaf”

Which inhibition at 63 g/ha (velvet leaf [1]; 0.63 g/a) does the source give for `CC(C)N1C(=O)c2ccccc2NS1(=O)=O` [Bentazon, 3-(1-methylethyl)-(1H)-2,1,3-benzothiadiazin-4(3H)-one-2,2-dioxide, reference compound] here?
Its inhibition at 63 g/ha is 17%.

And the inhibition at 125 g/ha (velvet leaf [1]; 1.25 g/a)?
Its inhibition at 125 g/ha is 69%.

How did the inhibition at 12.5 g/ha (velvet leaf [2]) turn out when `CON(C)C(=O)Nc1ccc(Cl)c(Cl)c1` [Linuron, 3-(3,4-dichlorophenyl)-1-methoxy-1-methylurea, reference compound] was run?
The inhibition at 12.5 g/ha was 35%.

And the inhibition at 25 g/ha (velvet leaf [2])?
The inhibition at 25 g/ha was 61%.

And the inhibition at 12.5 g/ha [3]?
Its inhibition at 12.5 g/ha is 23%.

What about the inhibition at 25 g/ha [3] of the same molecule?
The inhibition at 25 g/ha was 68%.

And the inhibition at 50 g/ha [3]?
The inhibition at 50 g/ha was 79%.

`CSc1nnc(C(C)(C)C)c(=O)n1N` [Metribuzin, 4-amino-6-(1,1-dimethylethyl)-3-(methylthio)-1,2,4-triazin-5(4H)-one, reference compound] was tested. Which inhibition at 16 g/ha (velvet leaf [1]; 0.16 g/a) did it give?
The inhibition at 16 g/ha was 89%.
